Read-outs that look alike come from different tables or passages of the source. Values belong to the compound of their own block, whether it stands above or below them.
Target: CB1 (Mus musculus, UniProt P47746)
Test: CB1 radioligand displacement assay in mouse brain membranes
Type: binding
Design: radioligand displacement assay in mouse brain membranes; from tissue; host or cells: mouse brain membranes

Sequence of CB1 (P47746 whole entry): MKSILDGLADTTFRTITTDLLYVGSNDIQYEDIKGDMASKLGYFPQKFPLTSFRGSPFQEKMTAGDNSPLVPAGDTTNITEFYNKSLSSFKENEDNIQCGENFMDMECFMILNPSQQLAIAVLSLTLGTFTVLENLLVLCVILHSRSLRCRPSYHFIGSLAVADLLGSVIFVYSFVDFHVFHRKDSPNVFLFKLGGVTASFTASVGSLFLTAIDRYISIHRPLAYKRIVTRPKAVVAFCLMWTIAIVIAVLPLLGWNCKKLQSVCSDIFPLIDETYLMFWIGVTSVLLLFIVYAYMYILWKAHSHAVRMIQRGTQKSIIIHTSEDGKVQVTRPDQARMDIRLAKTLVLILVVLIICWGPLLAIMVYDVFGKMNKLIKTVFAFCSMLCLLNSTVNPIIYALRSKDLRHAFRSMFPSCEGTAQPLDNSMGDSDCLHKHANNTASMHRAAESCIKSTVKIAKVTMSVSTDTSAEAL

- Ki (Table 1, read-out: Ki CB1): 171 nM
Structure (SMILES): CN(C)/C(N)=N/C(=N/S(=O)(=O)c1ccc(Cl)cc1)N1CC(c2ccccc2)C(c2ccc(Cl)cc2)=N1 (racemic) [Compound 44, rac-N-(amino(dimethylamino)methylene)-3-(4-chlorophenyl)-N-((4-chlorophenyl)sulfonyl)-4-phenyl-4,5-dihydro-1H-pyrazole-1-carboximidamide]

- Ki (Table 2, read-out: Ki CB1): 36 nM
Structure (SMILES): CC(C)(C)C(N)=NC(=NS(=O)(=O)c1ccc(Cl)cc1)N1C[C@H](c2ccccc2)C(c2ccc(Cl)cc2)=N1 [Compound 3E1]

- Ki (Table 2, read-out: Ki CB1): 29 nM
Structure (SMILES): CC(C)C(N)=NC(=NS(=O)(=O)c1ccc(Cl)cc1)N1CC(c2ccccc2)C(c2ccc(Cl)cc2)=N1 (stereo not drawn) [Compound 5]

- Ki (Table 2, read-out: Ki CB1): 56 nM
Structure (SMILES): NC(=NC(=NS(=O)(=O)c1ccc(Cl)cc1)N1CC(c2ccccc2)C(c2ccc(Cl)cc2)=N1)c1cccc(Br)c1 (stereo not drawn) [Compound 14]

- Ki (Table 2, read-out: Ki CB1): 60 nM
Structure (SMILES): NC(=NC(=NS(=O)(=O)c1ccc(Cl)cc1)N1CC(c2ccccc2)C(c2ccc(Cl)cc2)=N1)c1cccs1 (stereo not drawn) [Compound 16]

- Ki (Table 2, read-out: Ki CB1): 166 nM
Structure (SMILES): CC(C)SC(N)=NC(=NS(=O)(=O)c1ccc(Cl)cc1)N1CC(c2ccccc2)C(c2ccc(Cl)cc2)=N1 (stereo not drawn) [Compound 23]

- Ki (Table 2, read-out: Ki CB1): 263 nM
Structure (SMILES): C=CCN(CC=C)/C(N)=N/C(=N/S(=O)(=O)c1ccc(Cl)cc1)N1CC(c2ccccc2)C(c2ccc(Cl)cc2)=N1 (stereo not drawn) [Compound 35]

- Ki (Table 2, read-out: Ki CB1): 535 nM
Structure (SMILES): CCCCN(CC)/C(N)=N/C(=N/S(=O)(=O)c1ccc(Cl)cc1)N1CC(c2ccccc2)C(c2ccc(Cl)cc2)=N1 (stereo not drawn) [Compound 36]

- Ki (Table 2, read-out: Ki CB1): 138 nM
Structure (SMILES): CCCN(CCC)/C(N)=N/C(=N/S(=O)(=O)c1ccc(Cl)cc1)N1CC(c2ccccc2)C(c2ccc(Cl)cc2)=N1 (stereo not drawn) [Compound 37]

- Ki (Table 2, read-out: Ki CB1): 49 nM
Structure (SMILES): CCN(CC)/C(N)=N/C(=N/S(=O)(=O)c1ccc(Cl)cc1)N1CC(c2ccccc2)C(c2ccc(Cl)cc2)=N1 (stereo not drawn) [Compound 38]

- Ki (Table 2, read-out: Ki CB1): 425 nM
Structure (SMILES): COCCN(CCOC)/C(N)=N/C(=N/S(=O)(=O)c1ccc(Cl)cc1)N1CC(c2ccccc2)C(c2ccc(Cl)cc2)=N1 (stereo not drawn) [Compound 39]

- Ki (Table 2, read-out: Ki CB1): 848 nM
Structure (SMILES): COCCN/C(N)=N/C(=N/S(=O)(=O)c1ccc(Cl)cc1)N1CC(c2ccccc2)C(c2ccc(Cl)cc2)=N1 (stereo not drawn) [Compound 40]

- Ki (Table 1, read-out: Ki CB1): 6.5 nM
- Ki (Table 2, read-out: Ki CB1): 6.5 nM
Structure (SMILES): CC(C)(C)OC(=O)N/C(N)=N/C(=N/S(=O)(=O)c1ccc(Cl)cc1)N1CC(c2ccccc2)C(c2ccc(Cl)cc2)=N1 (stereo not drawn) [Compound 41]

- Ki (Table 2, read-out: Ki CB1): 23 nM
Structure (SMILES): CON(C)/C(N)=N/C(=N/S(=O)(=O)c1ccc(Cl)cc1)N1CC(c2ccccc2)C(c2ccc(Cl)cc2)=N1 (stereo not drawn) [Compound 42]

- Ki (Table 2, read-out: Ki CB1): 908 nM
Structure (SMILES): COCCN(C)/C(N)=N/C(=N/S(=O)(=O)c1ccc(Cl)cc1)N1CC(c2ccccc2)C(c2ccc(Cl)cc2)=N1 (stereo not drawn) [Compound 43]

- Ki (Table 2, read-out: Ki CB1): 49 nM
Structure (SMILES): CC(C)(C)N/C(N)=N/C(=N/S(=O)(=O)c1ccc(Cl)cc1)N1CC(c2ccccc2)C(c2ccc(Cl)cc2)=N1 (stereo not drawn) [Compound 46]

- Ki (Table 2, read-out: Ki CB1): 516 nM
Structure (SMILES): CC(C)N/C(N)=N/C(=N/S(=O)(=O)c1ccc(Cl)cc1)N1CC(c2ccccc2)C(c2ccc(Cl)cc2)=N1 (stereo not drawn) [Compound 47]

- Ki (Table 2, read-out: Ki CB1): 147 nM
Structure (SMILES): CN(Cc1cccnc1)C(N)=NC(=NS(=O)(=O)c1ccc(Cl)cc1)N1CC(c2ccccc2)C(c2ccc(Cl)cc2)=N1 (stereo not drawn) [Compound 48]

- Ki (Table 2, read-out: Ki CB1): 343 nM
Structure (SMILES): CN(Cc1ccccc1)/C(N)=N/C(=N/S(=O)(=O)c1ccc(Cl)cc1)N1CC(c2ccccc2)C(c2ccc(Cl)cc2)=N1 (stereo not drawn) [Compound 49]

- Ki (Table 2, read-out: Ki CB1): 309 nM
Structure (SMILES): CN1CCN(/C(N)=N/C(=N/S(=O)(=O)c2ccc(Cl)cc2)N2CC(c3ccccc3)C(c3ccc(Cl)cc3)=N2)CC1 (stereo not drawn) [Compound 54]

- Ki (Table 2, read-out: Ki CB1): 443 nM
Structure (SMILES): COC(CN/C(N)=N/C(=N/S(=O)(=O)c1ccc(Cl)cc1)N1CC(c2ccccc2)C(c2ccc(Cl)cc2)=N1)OC (stereo not drawn) [Compound 60]

- Ki (Table 2, read-out: Ki CB1): 203 nM
Structure (SMILES): CN(CCC#N)/C(N)=N/C(=N/S(=O)(=O)c1ccc(Cl)cc1)N1CC(c2ccccc2)C(c2ccc(Cl)cc2)=N1 (stereo not drawn) [Compound 61]

- Ki (Table 2, read-out: Ki CB1): 11 nM
Structure (SMILES): N/C(=N\C(=N\S(=O)(=O)c1ccc(Cl)cc1)N1CC(c2ccccc2)C(c2ccc(Cl)cc2)=N1)n1cccn1 (stereo not drawn) [Compound 63]

- Ki (Table 2, read-out: Ki CB1): 9 nM
Structure (SMILES): CC(=O)N/C(N)=N/C(=N/S(=O)(=O)c1ccc(Cl)cc1)N1CC(c2ccccc2)C(c2ccc(Cl)cc2)=N1 (stereo not drawn) [Compound 65]

The remaining lines, values behind:

Structure (SMILES): N/C(=N/C(=N\S(=O)(=O)c1ccc(Cl)cc1)N1CC(c2ccccc2)C(c2ccc(Cl)cc2)=N1)c1ccc(F)cc1 (single isomer, unassigned) [Compound 10E1]
- Ki (Table 2, read-out: Ki CB1): 6.5 nM

Structure (SMILES): N/C(=N/C(=N\S(=O)(=O)c1ccc(Cl)cc1)N1CC(c2ccccc2)C(c2ccc(Cl)cc2)=N1)c1ccc(F)cc1 (single isomer, unassigned) [Compound 10E2]
- Ki (Table 2, read-out: Ki CB1): 524 nM

Structure (SMILES): CC(C)(C)C(N)=NC(=NS(=O)(=O)c1ccc(Cl)cc1)N1CC(c2ccccc2)C(c2ccc(Cl)cc2)=N1 (stereo not drawn) [Compound 3]
- Ki (Table 1, read-out: Ki CB1): 7 nM
- Ki (Table 2, read-out: Ki CB1): 7 nM

Structure (SMILES): O=S(=O)(N=C(N=C1CCCCN1)N1CC(c2ccccc2)C(c2ccc(Cl)cc2)=N1)c1ccc(Cl)cc1 (stereo not drawn) [Compound 6]
- Ki (Table 2, read-out: Ki CB1): 29 nM

Structure (SMILES): NC(=NC(=NS(=O)(=O)c1ccc(Cl)cc1)N1CC(c2ccccc2)C(c2ccc(Cl)cc2)=N1)C12CC3CC(CC(C3)C1)C2 (stereo not drawn) [Compound 7]
- Ki (Table 2, read-out: Ki CB1): 15 nM

Structure (SMILES): NC(=NC(=NS(=O)(=O)c1ccc(Cl)cc1)N1CC(c2ccccc2)C(c2ccc(Cl)cc2)=N1)c1ccc([N+](=O)[O-])cc1 (stereo not drawn) [Compound 9]
- Ki (Table 2, read-out: Ki CB1): 62 nM

Structure (SMILES): NC(=NC(=NS(=O)(=O)c1ccc(Cl)cc1)N1CC(c2ccccc2)C(c2ccc(Cl)cc2)=N1)c1ccc(F)cc1 (stereo not drawn) [Compound 10]
- Ki (Table 2, read-out: Ki CB1): 7.9 nM

Structure (SMILES): NC(COc1ccccc1)=NC(=NS(=O)(=O)c1ccc(Cl)cc1)N1CC(c2ccccc2)C(c2ccc(Cl)cc2)=N1 (stereo not drawn) [Compound 13]
- Ki (Table 2, read-out: Ki CB1): 72 nM

Structure (SMILES): NC(=NC(=NS(=O)(=O)c1ccc(Cl)cc1)N1CC(c2ccccc2)C(c2ccc(Cl)cc2)=N1)c1ccccc1F (stereo not drawn) [Compound 15]
- Ki (Table 2, read-out: Ki CB1): 19 nM

Structure (SMILES): COc1cccc(C(N)=NC(=NS(=O)(=O)c2ccc(Cl)cc2)N2CC(c3ccccc3)C(c3ccc(Cl)cc3)=N2)c1 (stereo not drawn) [Compound 17]
- Ki (Table 2, read-out: Ki CB1): 86 nM

Structure (SMILES): NC(=NC(=NS(=O)(=O)c1ccc(Cl)cc1)N1CC(c2ccccc2)C(c2ccc(Cl)cc2)=N1)c1ccc(F)cc1F (stereo not drawn) [Compound 19]
- Ki (Table 2, read-out: Ki CB1): 7.7 nM

Structure (SMILES): NC(=NC(=NS(=O)(=O)c1ccc(Cl)cc1)N1CC(c2ccccc2)C(c2ccc(Cl)cc2)=N1)c1ccc(Br)cc1 (stereo not drawn) [Compound 20]
- Ki (Table 2, read-out: Ki CB1): 27 nM

Structure (SMILES): NC(=NC(=NS(=O)(=O)c1ccc(Cl)cc1)N1CC(c2ccccc2)C(c2ccc(Cl)cc2)=N1)SCc1ccccc1 (stereo not drawn) [Compound 24]
- Ki (Table 2, read-out: Ki CB1): 127 nM

Structure (SMILES): NC(=NC(=NS(=O)(=O)c1ccc(Cl)cc1)N1CC(c2ccccc2)C(c2ccc(Cl)cc2)=N1)SCCc1ccccc1 (stereo not drawn) [Compound 25]
- Ki (Table 2, read-out: Ki CB1): 287 nM

Structure (SMILES): NC(=NC(=NS(=O)(=O)c1ccc(Cl)cc1)N1CC(c2ccccc2)C(c2ccc(Cl)cc2)=N1)SCCCc1ccccc1 (stereo not drawn) [Compound 26]
- Ki (Table 2, read-out: Ki CB1): 190 nM

Structure (SMILES): CC(N)=NC(=NS(=O)(=O)c1ccc(F)cc1)N1CC(c2ccccc2)C(c2ccc(Cl)cc2)=N1 (stereo not drawn) [Compound 27]
- Ki (Table 2, read-out: Ki CB1): 60 nM

Structure (SMILES): CC(N)=NC(=NS(=O)(=O)c1ccc(Br)cc1)N1CC(c2ccccc2)C(c2ccc(Cl)cc2)=N1 (stereo not drawn) [Compound 28]
- Ki (Table 2, read-out: Ki CB1): 18 nM

Structure (SMILES): CC(N)=NC(=NS(=O)(=O)c1ccc(I)cc1)N1CC(c2ccccc2)C(c2ccc(Cl)cc2)=N1 (stereo not drawn) [Compound 29]
- Ki (Table 2, read-out: Ki CB1): 10 nM

Structure (SMILES): CC(N)=NC(=NS(=O)(=O)c1ccccc1)N1CC(c2ccccc2)C(c2ccc(Cl)cc2)=N1 (stereo not drawn) [Compound 30]
- Ki (Table 2, read-out: Ki CB1): 114 nM

Structure (SMILES): CC(N)=NC(=NS(=O)(=O)c1ccc(C)cc1)N1CC(c2ccccc2)C(c2ccc(Cl)cc2)=N1 (stereo not drawn) [Compound 31]
- Ki (Table 2, read-out: Ki CB1): 87 nM

Structure (SMILES): COc1ccc(S(=O)(=O)N=C(N=C(C)N)N2CC(c3ccccc3)C(c3ccc(Cl)cc3)=N2)cc1 (stereo not drawn) [Compound 32]
- Ki (Table 2, read-out: Ki CB1): 182 nM

Structure (SMILES): CC(N)=NC(=NS(=O)(=O)c1ccc2ccccc2c1)N1CC(c2ccccc2)C(c2ccc(Cl)cc2)=N1 (stereo not drawn) [Compound 33]
- Ki (Table 2, read-out: Ki CB1): 8 nM

Structure (SMILES): N/C(=N\C(=N\S(=O)(=O)c1ccc(Cl)cc1)N1CC(c2ccccc2)C(c2ccc(Cl)cc2)=N1)NCc1ccccc1 (stereo not drawn) [Compound 50]
- Ki (Table 2, read-out: Ki CB1): 505 nM

Structure (SMILES): N/C(=N\C(=N\S(=O)(=O)c1ccc(Cl)cc1)N1CC(c2ccccc2)C(c2ccc(Cl)cc2)=N1)NCCc1ccccc1 (stereo not drawn) [Compound 51]
- Ki (Table 2, read-out: Ki CB1): 931 nM

Structure (SMILES): N/C(=N\C(=N\S(=O)(=O)c1ccc(Cl)cc1)N1CC(c2ccccc2)C(c2ccc(Cl)cc2)=N1)N1CCOCC1 (stereo not drawn) [Compound 52]
- Ki (Table 1, read-out: Ki CB1): 193 nM
- Ki (Table 2, read-out: Ki CB1): 193 nM

Structure (SMILES): N/C(=N\C(=N\S(=O)(=O)c1ccc(Cl)cc1)N1CC(c2ccccc2)C(c2ccc(Cl)cc2)=N1)N1CCCCC1 (stereo not drawn) [Compound 53]
- Ki (Table 2, read-out: Ki CB1): 276 nM

Structure (SMILES): N/C(=N\C(=N\S(=O)(=O)c1ccc(Cl)cc1)N1CC(c2ccccc2)C(c2ccc(Cl)cc2)=N1)NC1CCCC1 (stereo not drawn) [Compound 56]
- Ki (Table 2, read-out: Ki CB1): 459 nM

Structure (SMILES): N/C(=N\C(=N\S(=O)(=O)c1ccc(Cl)cc1)N1CC(c2ccccc2)C(c2ccc(Cl)cc2)=N1)NC1CCCCC1 (stereo not drawn) [Compound 57]
- Ki (Table 2, read-out: Ki CB1): 419 nM

Structure (SMILES): N/C(=N\C(=N\S(=O)(=O)c1ccc(Cl)cc1)N1CC(c2ccccc2)C(c2ccc(Cl)cc2)=N1)NCCc1c[nH]c2ccccc12 (stereo not drawn) [Compound 58]
- Ki (Table 2, read-out: Ki CB1): 585 nM

Structure (SMILES): CC(C)(C)OC(=O)N1CCN(/C(N)=N/C(=N/S(=O)(=O)c2ccc(Cl)cc2)N2CC(c3ccccc3)C(c3ccc(Cl)cc3)=N2)CC1 (stereo not drawn) [Compound 59]
- Ki: 387 nM

Structure (SMILES): NC(=NC(=NS(=O)(=O)c1ccc(Cl)cc1)N1CC(c2ccccc2)C(c2ccc(Cl)cc2)=N1)NCC12CC3CC(CC(C3)C1)C2 (stereo not drawn) [Compound 62]
- Ki (Table 2, read-out: Ki CB1): > 1000 nM

Structure (SMILES): NC(=NC(=NS(=O)(=O)c1ccc(Cl)cc1)N1CC(c2ccccc2)C(c2ccc(Cl)cc2)=N1)NC12CC3CC(CC(C3)C1)C2 (stereo not drawn) [Compound 64]
- Ki (Table 2, read-out: Ki CB1): > 1000 nM

Structure (SMILES): CC(C)(N/C(N)=N/C(=N/S(=O)(=O)c1ccc(Cl)cc1)N1CC(c2ccccc2)C(c2ccc(Cl)cc2)=N1)c1ccccc1 (stereo not drawn) [Compound 66]
- Ki (Table 2, read-out: Ki CB1): 112 nM
